Legend:
[1] = test system: LCC6 cells; assay: Drug resistance level: IC50 of anticancer drugs in LCC6; assay type: cell-based; settings: Homo sapiens, LCC-6, 72 h; 3 days incubation
Description: (§1) In the Western blot membrane, the total P-gp and β-actin expression in each lane was quantified with ImageJ software. The relative P-gp expression was an intensity ratio of P-gp band relative to the β-actin band. The relative P-gp expression of the resistant cell line relative to its respective wild type was presented as a bar chart. The plasma membrane P-gp levels of LCC6MDR and K562/P-gp relative to their wild types were determined through flow cytometry using antihuman P-gp-PE antibodies. (B) LCC6MDR and LCC6. (C) K562/P-gp and K562. (D) the drug resistance levels of three P-gp-overexpressing cell lines and their wild types were studied. The 3 pairs of cell lines were incubated with anticancer drugs paclitaxel (PTX), doxorubicin (DOX), and vincristine (VCR) for 3 days, and the % of cell survival was then determined. Their IC50 (nM) values were calculated using Prism 5.0. RF (relative fold) was a ratio of IC50 of anticancer drugs in a P-gp-overexpressing cell line relative to its respective wild type. N = 3 independent experiments. […] All cell lines were counterstained with DAPI. (E) LCC6 and LCC6MDR, (F) P388 and P338ADR, and (G) K562 and K562/P-gp. Bar = 8 µm. / = not determined.

[2] = test system: LCC6MDR cells; assay: Drug resistance level: IC50 of anticancer drugs in LCC6MDR; assay type: cell-based, human
Description: as §1

[3] = test system: P388 cells; assay: Drug resistance level: IC50 of anticancer drugs in P388; assay type: cell-based; settings: Mus musculus, P388, 72 h; 3 days incubation
Description: as §1

[4] = test system: P388ADR cells; assay: Drug resistance level: IC50 of anticancer drugs in P388ADR; assay type: cell-based, mouse
Description: as §1

[5] = test system: K562 cells; assay: Drug resistance level: IC50 of anticancer drugs in K562; assay type: cell-based; settings: Homo sapiens, K562, 72 h; 3 days incubation
Description: as §1

[6] = test system: K562/P-gp cells; assay: Drug resistance level: IC50 of anticancer drugs in K562/P-gp; assay type: cell-based, human
Description: as §1

[7] = test system: P388ADR leukemia; assay: In vivo efficacy in reversing DOX resistance in murine leukemia P388ADR model; design: species or system B6D2F1 mice; settings: DOX 3 mg/kg i.p. alone
Description: (§2) Irradiated BDF1 mice were i.p. inoculated with P388ADR cells, which caused mouse leukemia. Irradiated NOD/SCID mice were i.v. inoculated with K562/P-gp cells, which caused human leukemia. The mice were randomized and treated with (1) control treatment (no treatment), (2) DOX alone, and (3) EC31 + DOX. Treatments were given as indicated by the arrows. The number of mice deaths in each treatment group was recorded every day. (A) The percent survival of mice infected with P388ADR. (B) The percent survival of mice infected with K562/P-gp. The mice median survival days and the increased lifespan (ILS) were analyzed with Log-rank (Mantel–COX) test in Prism 5.0. Student’s paired t test was conducted as indicated. ** represents p < 0.01, and *** represents p < 0.001. N.S. = not significant.
About 1 × 10^6 cells of P388ADR were i.p. inoculated in male B6D2F1 mice aged 5–7 weeks old. There were 3 groups: (1) control group with no treatment, (2) DOX (3 mg/kg i.p.) alone, and (3) cotreatment with EC31 (60 mg/kg i.p.) being injected 1 h prior to DOX (3 mg/kg i.p.) administration. In group 2, DOX was i.p. injected on days 2, 6, 10, 14, and 18 only. In group 3, EC31 was i.p. injected on days 1, 2, 5, 6, 9, 10, 13, 14, 17, and 18, and DOX was i.p. injected on days 2, 6, 10, 14, and 18. Before each treatment, 1.5 mg/mL of DOX was freshly prepared using PBS. Mice survival and body weight were monitored during the study period.

[8] = test system: K562/P-gp leukemia; assay: In vivo efficacy in reversing DOX resistance in human leukemia K562/P-gp model; design: species or system NOD/SCID mice
Description: as §2
The mice were randomly distributed into 3 groups: (1) control group (no treatment), (2) DOX (0.9 mg/kg i.v.) alone, and (3) cotreatment with EC31 (30 mg/kg i.p.) being injected 1 h prior to DOX (0.9 mg/kg i.v.) administration. EC31 and DOX were injected on days 7, 11, 19, 23, and 27. Before each treatment, 0.2 mg/mL of DOX was freshly prepared using PBS. Mice survival and body weight were monitored during the study period.

Q: With `COc1cccc2c1C(=O)c1c(O)c3c(c(O)c1C2=O)C[C@@](O)(C(=O)CO)C[C@@H]3O[C@H]1C[C@H](N)[C@H](O)[C@H](C)O1` [DOX, doxorubicin] as the molecule, how does the IC50 [1] read?
A: Its IC50 is 800 ± 100 nM.

Q: What about the IC50 ([2]; Homo sapiens, LCC6MDR, 72 h, 3 days incubation) of the same molecule?
A: The IC50 was 10300 nM.

Q: What about the “RF (relative fold)” value ([2]; IC50 in LCC6MDR relative to LCC6) of the same molecule?
A: Its value is 12.9.

Q: What about the IC50 [3] of the same molecule?
A: Its IC50 is 50 ± 1.8 nM.

Q: What about the “RF (relative fold)” value ([4]; IC50 in P388ADR relative to P388) of the same molecule?
A: The value was 35.8.

Q: What about the IC50 ([4]; Mus musculus, P388/ADR, 72 h, 3 days incubation) of the same molecule?
A: The IC50 was 1790 ± 139 nM.

Q: What about the IC50 [5] of the same molecule?
A: Its IC50 is 312 ± 41.6 nM.

Q: What about the IC50 ([6]; Homo sapiens, K562, 72 h, 3 days incubation) of the same molecule?
A: Its IC50 is 1930 ± 126 nM.

Q: What about the “RF (relative fold)” value ([6]; IC50 in K562/P-gp relative to K562) of the same molecule?
A: Its value is 6.2.

Q: And the median survival [7]?
A: Its median survival is 16.5 days.

Q: What about the median survival time ([8]; DOX 0.9 mg/kg i.v. alone) of the same molecule?
A: Its median survival time is 32.0 days.

Q: What about the “ILS% (increase in lifespan)” value ([8]; DOX alone compared to untreated) of the same molecule?
A: The value was 10.3%.
